Laboratory results as given in PMC6116703, “Ethenesulfonyl fluoride derivatives as telomerase inhibitors: structure-based design, SAR, and anticancer evaluation in vitro” (Journal of Enzyme Inhibition and Medicinal Chemistry, 2018).
Like-named read-outs stand apart in the source and are kept apart here.

What was measured:
[1] = test system: human breast cancer cell MDA-MB-231; assay: Cell proliferation (MTT) assay, MDA-MB-231; type: cell-based
Description: (§1) The antiproliferative activities evaluation was conducted by using a modified procedure as described in the literature. Briefly, target tumour cells were grown to log phase in RPMI 1640 medium supplemented with 10% fetal bovine serum. After diluting to 3 × 10^4 cells mL^−1 with the complete medium, 100 µL of the obtained cell suspension was added to each well of 96-well culture plates. The subsequent incubation was performed at 37 °C, 5% CO2 atmosphere for 24 h before subjecting to antiproliferation assessment. The tested samples at pre-set concentrations were added to six wells with Doxorubicin (AMD) co-assayed as a positive reference. After 48 h of exposure period, 25 µL of PBS containing 2.5 mg·mL^−1 of MTT was added to each well. After 4 h, the medium was replaced by 150 µL DMSO to dissolve the purple formazan crystals produced. The absorbance at 570 nm of each well was measured using an ELISA plate reader. The data represented the mean of three experiments in triplicate and were expressed as means ± SD using Student’s test.

human melanoma cell A375 = assay: Cell proliferation (MTT) assay, A375; type: cell-based
Description: as §1

[2] = test system: human hepatoma cell SMMC-7721; assay: Cell proliferation (MTT) assay, SMMC-7721; type: cell-based; conditions: read-out: IC50 SMMC-7721
Description: as §1

[3] = test system: human gastric cancer cells MGC-803; assay: Cell proliferation (MTT) assay, MGC-803; type: cell-based; conditions: read-out: IC50 MGC-803
Description: as §1

telomerase = target: T1, telomerase (Homo sapiens, UniProt O14746); assay: Telomerase activity TRAP-PCR-ELISA assay (A375 cell extract); type: biochemical; conditions: TRAP-PCR-ELISA, A375 cells, 24 h treatment; for IC50: IC50 inhibitory activity against telomerase
T1 construct: endogenous in cells; host or cells: A375 human melanoma cells
Description: Thirty-six compounds were tested in a search for inhibitors of telomerase activity using the TRAP-PCR-ELISA assay. In detail, the A375 cells were firstly maintained in RPMI 1640 buffer (Hyclone, Miami, FL), supplemented with 10% fetal bovineserum (GIBCO, New York, NY), streptomycin (0.1 mg/mL) and penicillin (100 IU/mL) at 37 °C in a humidified atmosphere containing 5% CO2. After trypsinisation, 5 × 10^4 cultured cells in logarithmic growth were seeded into T25 flasks (Corning, New York, NY) and cultured to allow to adherence. […] After 24 h treatment, the cells were harvested by cell scraper orderly followed by washing once with PBS. The cells were lysed in 150 µL RIPA cell lysis buffer (Santa Cruz, Santa Cruz, CA), and incubated on ice for 30 min. The cellular supernatants were obtained via centrifugation at 12,000g for 20 min at 4 °C and stored at –80 °C. The TRAP-PCR-ELISA assay was performed using a telomerase detection kit (Roche, Basel, Switzerland) according to the manufacturer’s protocol. In brief, 2 µL of cell extracts were mixed with 48 µL TRAP reaction mixtures. TRAP primers and Taq polymerase are incubated at 25 °C for 30 min. PCR was then initiated at 94 °C, 120 s for predenaturation and performed using 35 cycles each consisting of 94 °C for 30 s, 50 °C for 30 s, 72 °C for 90 s. Then 20 µL of PCR products were hybridised to a digoxigenin (DIG)-labelled telomeric repeat specific detection probe. And the PCR products were immobilised via the biotin-labelled primer to a streptavidin-coated microtiter plate subsequently. The immobilised DNA fragments were detected with a peroxidase-conjugated anti-DIG antibody and visualised following the addition of the stop regent. The microtitre plate was assessed on TECAN Infinite M200 microplate reader (Mannedorf, Switzerland) at a wavelength of 490 nm, and the final value were presented as mean ± SD[23].

[4] = test system: human gastric cancer cells SGC-7901; assay: Cell proliferation (MTT) assay, SGC-7901; type: cell-based; conditions: antiproliferative, MTT, 48 h exposure; read-out: IC50 SGC-7901
Description: as §1

[5] = antiproliferative, MTT, 48 h exposure, read-out: IC50 MDA-MB-231
[6] = antiproliferative, MTT, 48 h exposure, read-out: IC50 A375
[7] = antiproliferative, MTT, 48 h exposure
[8] = Homo sapiens, A-375, 48 h, read-out: IC50 A375, antiproliferative, MTT, 48 h exposure
[9] = Homo sapiens, MDA-MB-231, 48 h, read-out: IC50 MDA-MB-231, antiproliferative, MTT, 48 h exposure
[10] = read-out: IC50 A375, antiproliferative, MTT, 48 h exposure

T1 sequence (O14746 whole entry): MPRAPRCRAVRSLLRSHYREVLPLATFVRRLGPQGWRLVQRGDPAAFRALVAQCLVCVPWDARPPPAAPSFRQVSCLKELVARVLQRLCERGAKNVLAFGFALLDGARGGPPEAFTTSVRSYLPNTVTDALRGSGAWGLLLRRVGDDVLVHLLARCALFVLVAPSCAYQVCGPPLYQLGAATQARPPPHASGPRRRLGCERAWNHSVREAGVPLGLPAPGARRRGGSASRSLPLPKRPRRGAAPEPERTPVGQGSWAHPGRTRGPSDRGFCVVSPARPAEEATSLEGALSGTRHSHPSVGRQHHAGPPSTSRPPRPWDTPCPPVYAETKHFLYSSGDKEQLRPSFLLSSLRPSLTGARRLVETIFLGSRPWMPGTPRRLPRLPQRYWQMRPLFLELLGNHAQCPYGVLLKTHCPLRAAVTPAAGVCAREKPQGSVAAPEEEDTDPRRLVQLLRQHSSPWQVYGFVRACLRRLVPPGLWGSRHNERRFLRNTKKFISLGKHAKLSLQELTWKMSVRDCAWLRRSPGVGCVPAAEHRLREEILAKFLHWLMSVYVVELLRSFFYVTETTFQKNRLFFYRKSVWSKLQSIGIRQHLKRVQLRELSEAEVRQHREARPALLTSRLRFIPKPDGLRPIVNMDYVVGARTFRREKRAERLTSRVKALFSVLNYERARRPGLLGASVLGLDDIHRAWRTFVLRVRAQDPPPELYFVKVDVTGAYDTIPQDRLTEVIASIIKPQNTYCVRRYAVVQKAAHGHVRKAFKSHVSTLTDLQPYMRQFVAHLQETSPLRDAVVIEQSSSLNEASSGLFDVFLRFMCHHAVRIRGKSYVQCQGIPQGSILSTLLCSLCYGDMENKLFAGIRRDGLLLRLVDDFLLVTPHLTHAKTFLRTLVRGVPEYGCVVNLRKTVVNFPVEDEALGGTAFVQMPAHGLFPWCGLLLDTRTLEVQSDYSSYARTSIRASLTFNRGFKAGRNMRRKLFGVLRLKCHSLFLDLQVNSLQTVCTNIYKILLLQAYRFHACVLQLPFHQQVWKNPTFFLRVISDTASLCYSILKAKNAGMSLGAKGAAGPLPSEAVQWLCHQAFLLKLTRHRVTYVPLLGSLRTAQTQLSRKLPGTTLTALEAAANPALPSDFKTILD

Row | Compound | IC50 [1, 5] [µM] | IC50 (human melanoma cell A375; [6]) [µM] | IC50 [2, 7] [µM] | IC50 (human melanoma cell A375; [8]) [µM] | IC50 (telomerase) [µM] | IC50 ([2]; Homo sapiens, SMMC-7721, 48 h) [µM] | IC50 [1, 9] [µM] | also measured
1 | CCc1ccc(/C=C/S(=O)(=O)F)cc1 [Compound 2] | 58.6 ± 1.78 | 22.8 ± 0.71 | 28.5 ± 1.47 |  |  |  |  | IC50 [3, 7]: 28.6 ± 1.27 µM
2 | O=S(=O)(F)/C=C/c1ccc(F)cc1 [Compound 6] |  |  |  | 5.99 ± 0.49 | 2.98 ± 0.59 | 15.9 ± 0.35 |  | IC50 ([1]; read-out: IC50 MDA-MB-231, antiproliferative, MTT, 48 h exposure): 9.2 ± 1.27 µM; IC50 ([3]; Homo sapiens, MGC-803, 48 h): 44.2 ± 1.25 µM
3 | O=S(=O)(F)/C=C/c1ccc(Cl)cc1 [Compound 7] |  |  |  | 9.84 ± 0.78 | 3.02 ± 0.44 | 13.3 ± 0.39 | 12.3 ± 0.64 | IC50 ([3]; Homo sapiens, MGC-803, 48 h): 12.9 ± 0.3 µM
4 | O=S(=O)(F)/C=C/c1ccc(Br)cc1 [Compound 8] |  |  |  | 9.12 ± 0.82 | 4.33 ± 0.77 | 10.7 ± 0.8 | 17.5 ± 1.77 | IC50 ([3]; Homo sapiens, MGC-803, 48 h): 17.2 ± 0.41 µM
5 | O=S(=O)(F)/C=C/c1ccc(OC(F)(F)F)cc1 [Compound 9] | 36.5 ± 2.56 | 24.1 ± 0.99 | 9.04 ± 0.99 |  |  |  |  | IC50 [3, 7]: 38.6 ± 1.22 µM
6 | O=S(=O)(F)/C=C/c1ccc(C(F)(F)F)cc1 [Compound 10] | 29.8 ± 2.31 | 5.43 ± 0.4 | 40.1 ± 1.66 |  |  |  |  | IC50 [3, 7]: 24.9 ± 0.82 µM
7 | O=[N+]([O-])c1ccc(/C=C/S(=O)(=O)F)cc1 [Compound 12] |  |  |  | ~3 | 2.77 ± 0.58 |  | 4.25 ± 0.32 | IC50 (human melanoma cell A375; [10]): 3.58 ± 0.11 µM
8 | N#Cc1ccc(/C=C/S(=O)(=O)F)cc1 [Compound 13] |  |  |  |  | 39 ± 1.29 |  |  | 
9 | Cc1cccc(/C=C/S(=O)(=O)F)c1 [Compound 17] |  |  |  | 12.1 ± 1.19 | 10.1 ± 1.13 |  | 10.6 ± 0.91 | 
10 | O=S(=O)(F)/C=C/c1cccc(F)c1 [Compound 18] |  |  |  | ~3 | 1.09 ± 0.11 | 24.8 ± 1.58 | 5.24 ± 0.4 | IC50 (human melanoma cell A375; [10]): 3.82 ± 0.31 µM
11 | O=S(=O)(F)/C=C/c1cccc(C(F)(F)F)c1 [Compound 20] |  |  |  | 10.4 ± 0.82 | 4.17 ± 0.39 | 20 ± 1.74 | 3.18 ± 0.2 | 
12 | CC(=O)c1cccc(/C=C/S(=O)(=O)F)c1 [Compound 21] | 23.1 ± 2.78 | 16.6 ± 0.91 | 11.8 ± 0.6 |  |  |  |  | IC50 [4]: 30.8 ± 2 µM
13 | O=[N+]([O-])c1cccc(/C=C/S(=O)(=O)F)c1 [Compound 22] |  |  |  | 4.14 ± 0.21 | 2.25 ± 0.3 | 26.1 ± 0.73 | 6.54 ± 0.74 | 
14 | O=S(=O)(F)/C=C/c1ccc(O)cc1 [Compound 33] | 19 ± 0.65 | 4.96 ± 0.51 | 26.2 ± 0.39 |  |  |  |  | IC50 [3, 7]: 35.9 ± 0.79 µM
15 | O=S(=O)(F)/C=C/c1cc(O)cc(O)c1 [Compound 36] |  |  |  | 4.01 ± 0.68 | 1.44 ± 0.22 | 29 ± 0.78 | 37.2 ± 1.4 | 
16 | O=S(=O)(F)/C=C/c1cc2ccccc2o1 [Compound 39] |  |  |  |  | 48.8 ± 2.22 |  |  | 
17 | O=S(=O)(F)/C=C/c1cccs1 [Compound 40] | 18.3 ± 0.8 | 6.73 ± 0.5 | 35.6 ± 0.55 |  |  |  |  | IC50 [4]: 51.3 ± 2.55 µM
18 | O=S(=O)(F)/C=C/c1cc2ccccc2s1 [Compound 42] |  |  |  |  |  |  |  | IC50 inhibitory activity against telomerase (telomerase): no
19 | O=S(=O)(F)/C=C/c1cccc2c1sc1ccccc12 [Compound 43] | 44 ± 1.2 | 38.6 ± 0.61 | 34.5 ± 0.77 |  |  |  |  | IC50 [4]: 24.8 ± 0.89 µM
20 | Cc1ccc(S(=O)(=O)n2cc(/C=C/S(=O)(=O)F)c3ccccc32)cc1 [Compound 44] |  |  |  | 5.34 ± 0.3 | 15.2 ± 1.56 | 9.24 ± 0.4 |  | 
21 | O=S(=O)(F)/C=C/c1cnn(-c2ccccc2)c1 [Compound 47] |  |  |  | 9.04 ± 0.29 | 2.13 ± 0.6 | 21.2 ± 0.49 | 10.2 ± 0.44 | 
